# According to PubChem BioAssay (NCI):
# “And” between values parts separate entries of the source, which are not always exact repeats. Identical values can stand only once.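 Protocol summary: plate cells (96-well), add compound at 5 concentrations, incubate 48 h, interpolate endpoints linearly. GI50: concentration for 50% inhibition of growth. TGI: concentration producing complete growth inhibition.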
# Assays:
# Experiment in all cases: NCI tumour cell line growth inhibition, 48 h
# ACHN renal = tested on: ACHN renal
# A549 NSCLC = tested on: A549 NSCLC
# HS 578T breast = tested on: HS 578T breast
# CAKI-1 renal = tested on: CAKI-1 renal
# NCI-H522 lung = tested on: NCI-H522 lung
# RXF 393 renal = tested on: RXF 393 renal
# SN12C renal = tested on: SN12C renal
# NCI/ADR-RES ovarian = tested on: NCI/ADR-RES ovarian
# EKVX NSCLC = tested on: EKVX NSCLC
# SR leukemia = tested on: SR leukemia
# A498 renal = tested on: A498 renal
# NCI-H460 lung = tested on: NCI-H460 lung
# M14 melanoma = tested on: M14 melanoma
# SNB-75 CNS = tested on: SNB-75 CNS
# OVCAR-3 ovarian = tested on: OVCAR-3 ovarian
# KM12 colon = tested on: KM12 colon
# TK-10 renal = tested on: TK-10 renal
# LOX IMVI melanoma = tested on: LOX IMVI melanoma
# HL-60(TB) leukemia = tested on: HL-60(TB) leukemia
# HCT-116 colon = tested on: HCT-116 colon
# SK-MEL-28 melanoma = tested on: SK-MEL-28 melanoma
# SK-MEL-2 melanoma = tested on: SK-MEL-2 melanoma
# PC-3 prostate = tested on: PC-3 prostate
# MDA-MB-435 = tested on: MDA-MB-435
# SF-539 CNS = tested on: SF-539 CNS
# MDA-N = tested on: MDA-N
# MDA-MB-231 breast = tested on: MDA-MB-231 breast
# SK-MEL-5 melanoma = tested on: SK-MEL-5 melanoma
# HT29 colon = tested on: HT29 colon
# OVCAR-8 ovarian = tested on: OVCAR-8 ovarian
# DU-145 prostate = tested on: DU-145 prostate
# BT-549 breast = tested on: BT-549 breast
# HOP-62 NSCLC = tested on: HOP-62 NSCLC
# MALME-3M melanoma = tested on: MALME-3M melanoma
# RPMI-8226 leukemia = tested on: RPMI-8226 leukemia
# UACC-62 melanoma = tested on: UACC-62 melanoma
# HCT-15 colon = tested on: HCT-15 colon
# UO-31 renal = tested on: UO-31 renal
# OVCAR-5 ovarian = tested on: OVCAR-5 ovarian
# MOLT-4 leukemia = tested on: MOLT-4 leukemia
# SK-OV-3 ovarian = tested on: SK-OV-3 ovarian
# SF-295 CNS = tested on: SF-295 CNS
# NCI-H226 lung = tested on: NCI-H226 lung
# UACC-257 melanoma = tested on: UACC-257 melanoma
# HOP-92 NSCLC = tested on: HOP-92 NSCLC
# CCRF-CEM leukemia = tested on: CCRF-CEM leukemia
# U251 CNS = tested on: U251 CNS
# SF-268 CNS = tested on: SF-268 CNS
# OVCAR-4 ovarian = tested on: OVCAR-4 ovarian
# MCF7 breast = tested on: MCF7 breast
# COLO 205 colon = tested on: COLO 205 colon
# SNB-19 CNS = tested on: SNB-19 CNS
# NCI-H23 lung = tested on: NCI-H23 lung
# SW-620 colon = tested on: SW-620 colon
# T-47D breast = tested on: T-47D breast
# K-562 leukemia = tested on: K-562 leukemia
# 786-0 renal = tested on: 786-0 renal
# HCC-2998 colon = tested on: HCC-2998 colon
# IGROV1 ovarian = tested on: IGROV1 ovarian
structure (smiles),measurement,setting,value
Nc1ccn(C2OC(CO)C(O)C2(F)F)c(=O)n1 (stereo unspecified),GI50,ACHN renal,25.2 nM and 3.79 nM
same,TGI,ACHN renal,3.48 µM
same,GI50,A549 NSCLC,15.8 nM
same,TGI,A549 NSCLC,> 100 µM
same,GI50,HS 578T breast,> 100 µM
same,TGI,HS 578T breast,> 100 µM
same,GI50,CAKI-1 renal,9.25 nM
same,TGI,CAKI-1 renal,2.55 µM and 21.4 µM
same,GI50,NCI-H522 lung,1350 nM
same,GI50,RXF 393 renal,36.3 nM
same,GI50,SN12C renal,39.1 nM
same,TGI,SN12C renal,946 nM and 1110 nM
same,GI50,NCI/ADR-RES ovarian,14.4 nM
same,TGI,EKVX NSCLC,> 100 µM
same,GI50,SR leukemia,57.9 nM
same,GI50,A498 renal,54.8 nM
same,GI50,NCI-H460 lung,6.51 nM
same,GI50,M14 melanoma,6.39 nM
same,TGI,M14 melanoma,148 nM and 24.9 nM
same,GI50,SNB-75 CNS,247 nM and 25.8 nM and 30.6 nM
same,TGI,SNB-75 CNS,944 nM
same,GI50,OVCAR-3 ovarian,3.62 µM
same,TGI,OVCAR-3 ovarian,> 100 µM
same,GI50,KM12 colon,2840 nM
same,TGI,KM12 colon,> 100 µM
same,GI50,TK-10 renal,> 100 µM
same,TGI,TK-10 renal,> 100 µM
same,GI50,LOX IMVI melanoma,28.5 nM
same,TGI,LOX IMVI melanoma,> 100 µM
same,GI50,HL-60(TB) leukemia,28.6 nM
same,TGI,HL-60(TB) leukemia,220 nM
same,GI50,HCT-116 colon,7.46 nM
same,TGI,HCT-116 colon,> 100 µM
same,TGI,SK-MEL-28 melanoma,> 100 µM
same,TGI,SK-MEL-2 melanoma,> 100 µM
same,TGI,PC-3 prostate,> 100 µM
same,GI50,MDA-MB-435,18.9 nM
same,TGI,MDA-MB-435,> 100 µM
same,GI50,SF-539 CNS,16.7 nM
same,TGI,SF-539 CNS,553 nM and 63.3 nM
same,GI50,MDA-N,64.7 nM
same,TGI,MDA-N,> 100 µM
same,GI50,MDA-MB-231 breast,7.26 µM and 0.924 µM
same,TGI,MDA-MB-231 breast,> 100 µM
same,GI50,SK-MEL-5 melanoma,39.2 nM
same,TGI,SK-MEL-5 melanoma,> 100 µM
same,TGI,HT29 colon,> 100 µM
same,GI50,OVCAR-8 ovarian,12.2 nM
same,TGI,OVCAR-8 ovarian,1.02 µM
same,GI50,DU-145 prostate,27.4 nM
same,GI50,BT-549 breast,74.4 nM and 17.8 nM
same,TGI,BT-549 breast,> 100 µM
same,GI50,HOP-62 NSCLC,25.5 nM
same,TGI,HOP-62 NSCLC,0.805 µM and 3.16 µM
same,GI50,MALME-3M melanoma,88.3 nM
same,GI50,RPMI-8226 leukemia,561 nM
same,TGI,RPMI-8226 leukemia,> 100 µM
same,GI50,UACC-62 melanoma,38.3 nM
same,GI50,HCT-15 colon,2200 nM
same,TGI,HCT-15 colon,> 100 µM
same,GI50,UO-31 renal,17.5 nM
same,TGI,UO-31 renal,685 nM and 433 nM and 327 nM
same,GI50,OVCAR-5 ovarian,182 nM
same,TGI,OVCAR-5 ovarian,> 100 µM
same,GI50,MOLT-4 leukemia,44.1 nM
same,GI50,SK-OV-3 ovarian,215 nM and 307 nM
same,TGI,SK-OV-3 ovarian,> 100 µM
same,GI50,SF-295 CNS,38.9 nM
same,TGI,SF-295 CNS,0.0216 µM
same,GI50,NCI-H226 lung,146 nM and 95 nM
same,TGI,NCI-H226 lung,> 100 µM
same,TGI,UACC-257 melanoma,> 100 µM
same,GI50,HOP-92 NSCLC,223 nM
same,GI50,CCRF-CEM leukemia,61.4 nM and 26.8 nM
same,GI50,U251 CNS,22.1 nM
same,TGI,U251 CNS,> 100 µM
same,GI50,SF-268 CNS,37.8 nM
same,GI50,OVCAR-4 ovarian,> 100 µM
same,TGI,OVCAR-4 ovarian,> 100 µM
same,GI50,MCF7 breast,5.52 nM
same,TGI,MCF7 breast,> 100 µM
same,GI50,COLO 205 colon,568 nM
same,TGI,COLO 205 colon,> 100 µM
same,GI50,SNB-19 CNS,13.1 nM
same,TGI,SNB-19 CNS,70.1 µM
same,GI50,NCI-H23 lung,7.88 nM
same,GI50,SW-620 colon,342 nM and 325 nM
same,TGI,SW-620 colon,> 100 µM
same,GI50,T-47D breast,1010 nM and 1390 nM
same,GI50,K-562 leukemia,82.4 nM
same,GI50,786-0 renal,3.9 nM
same,GI50,HCC-2998 colon,940 nM
same,TGI,HCC-2998 colon,> 100 µM
CC(C)(C)OC(=O)NC(Cc1ccc(OCc2ccccc2)cc1)C(=O)NC(COCc1ccccc1)C(=O)Oc1c(Cl)c(Cl)c(Cl)c(Cl)c1Cl (stereo unspecified),TGI,ACHN renal,76.6 µM
same,TGI,A549 NSCLC,89.7 µM
same,TGI,HS 578T breast,41.8 µM
same,TGI,CAKI-1 renal,47.4 µM
same,TGI,NCI-H522 lung,42 µM
same,TGI,RXF 393 renal,63.9 µM
same,TGI,SN12C renal,62400 nM
same,TGI,NCI/ADR-RES ovarian,50 µM
same,TGI,EKVX NSCLC,82.4 µM
same,TGI,SR leukemia,> 100 µM
same,TGI,A498 renal,53.2 µM
same,TGI,NCI-H460 lung,36.7 µM
same,TGI,M14 melanoma,42900 nM
same,TGI,SNB-75 CNS,> 100000 nM
same,TGI,OVCAR-3 ovarian,28.9 µM
same,TGI,KM12 colon,39 µM
same,TGI,TK-10 renal,85.8 µM
same,TGI,LOX IMVI melanoma,53 µM
same,TGI,HL-60(TB) leukemia,> 100000 nM
same,TGI,HCT-116 colon,30.1 µM
same,TGI,SK-MEL-28 melanoma,71.8 µM
same,TGI,SK-MEL-2 melanoma,36.6 µM
same,TGI,PC-3 prostate,40.4 µM
same,TGI,MDA-MB-435,56.7 µM
same,TGI,SF-539 CNS,29700 nM
same,TGI,MDA-N,80.8 µM
same,TGI,MDA-MB-231 breast,27.6 µM
same,TGI,SK-MEL-5 melanoma,33.7 µM
same,TGI,HT29 colon,69.7 µM
same,TGI,OVCAR-8 ovarian,52.6 µM
same,TGI,DU-145 prostate,46.8 µM
same,TGI,BT-549 breast,38.3 µM
same,TGI,HOP-62 NSCLC,32.9 µM
same,TGI,MALME-3M melanoma,68.2 µM
same,TGI,RPMI-8226 leukemia,> 100 µM
same,TGI,UACC-62 melanoma,32.3 µM
same,TGI,HCT-15 colon,33.5 µM
same,TGI,UO-31 renal,30700 nM
same,TGI,OVCAR-5 ovarian,67.3 µM
same,TGI,MOLT-4 leukemia,> 100 µM
same,TGI,SK-OV-3 ovarian,46.9 µM
same,TGI,SF-295 CNS,52.4 µM
same,TGI,NCI-H226 lung,54.5 µM
same,TGI,UACC-257 melanoma,84.8 µM
same,TGI,HOP-92 NSCLC,32.8 µM
same,TGI,CCRF-CEM leukemia,> 100 µM
same,TGI,U251 CNS,38.1 µM
same,TGI,SF-268 CNS,65.6 µM
same,TGI,OVCAR-4 ovarian,85.3 µM
same,TGI,MCF7 breast,48.2 µM
same,TGI,COLO 205 colon,36.5 µM
same,TGI,IGROV1 ovarian,41.7 µM
same,TGI,SNB-19 CNS,> 100 µM
same,TGI,NCI-H23 lung,35.6 µM
same,TGI,SW-620 colon,73 µM
same,TGI,T-47D breast,88.5 µM
same,TGI,K-562 leukemia,> 100 µM
same,TGI,HCC-2998 colon,40.5 µM
